Here are results for six compounds from paper PMC6100582 (Molecules : A Journal of Synthetic Chemistry and Natural …, 2018).

Series [1] relates to Streptococcus pneumonia MFBF 10373. The experiment in a line: Minimum biofilm eradication assay. The format is cell-based, Streptococcus pneumoniae. As for the experimental part:
MBECs of fumardiamides 4a–f and succindiamides 5a–f were determined as follows. Each well (96-well plate) was filled with 100 µl of bacterial (10^7 CFU/mL) or yeast (5 × 10^6 CFU/mL) suspension. When the inhibition of yeast biofilm formation was tested, the wells were pre-treated with fetal bovine serum (FBS) (250 µl per well). Negative controls contained broth only. Positive controls were performed using standard antimicrobial drugs gentamycin (Gen) and Amph, respectively. […] Following incubation period, each well was aspirated, washed three times and vigorously shaken to remove all non-adherent bacteria/yeast. The remaining attached cells were fixed with methanol (15 min) and the plates were left to dry overnight. Formed biofilm was stained with crystal violet (1%, 5 min). Excess stain was rinsed by placing the plate under running tap water and the plates were left to dry. Adherent cells were solubilized using ethanol. The absorbance was read at 570 nm. The MBEC value represents the lowest dilution of a compound at which bacteria fail to grow.

The next series relates to Punta Toro Virus. In words: microbe, parasite or virus in culture. The settings on record: Vero cells. Type of series: cell-based.
The subject of series [2] is HCT-116 (colorectal carcinoma). In words: Antiproliferative screening (cytostatic activity). The format is cell-based. The settings on record: Homo sapiens, HCT-116; 72 h, IncuCyte imaging; read-out: IC50 HCT-116. Put shortly: (§1)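 Cells in medium with 10% FBS, seeded and left overnight, then exposed to test compounds at four concentrations from 100 to 0.8 µM. Growth followed by imaging every 3 h, one field per well at 10×. Duplicate data points averaged.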

The test system of a further series is MM.1S (multiple myeloma). In words: Antiproliferative screening (cytostatic activity). Type of series: cell-based. The settings on record: Homo sapiens, MM1.S; 72 h, IncuCyte imaging; read-out: IC50 MM.1S. In outline:
as §1

The subject of series [3] is panel of nine different human cancer cell lines. In words: Cytostatic activity, panel of nine human cancer cell lines. Type of series: cell-based. The following applies: all nine tested cell lines, read-out: IC50 (range over all tested cell lines). Here is the method:
To gain insight into cytotoxicity of newly synthesized compounds 4a–f and 5a–f, their cytostatic activity was evaluated in vitro against a panel of nine different human cancer cell lines, representing various solid tumor types including pancreatic adenocarcinoma (Capan-1), chronic myeloid leukemia (Hap1), colorectal carcinoma (HCT-116), lung carcinoma (NCI-H460), acute lymphoblastic leukemia (DND-41), acute myeloid leukemia (HL-60), chronic myeloid leukemia (K-562), multiple myeloma (MM.1S) and non-Hodgkin lymphoma (Z-138).
Cytostatic activity was evaluated in vitro on nine different types of human tumor cell lines: Capan-1, Hap1, HCT-116, and NCI-H460, as well as hematological tumors such as DND-41, HL-60, K-562, MM.1S and Z-138 as described previously. All human tumor cell lines were acquired from the American Type Culture Collection (ATCC, Manassas, VA, USA), except for the DND-41 cell line which was purchased from the Deutsche Sammlung von Mikroorganismen und Zellkulturen (DSMZ Leibniz-Institut, Braunschweig, Germany) and the Hap1 cell line which was purchased from Horizon Discovery (Waterbeach, UK). […] The plates were incubated and monitored at 37 °C for 72 h in an IncuCyte (Essen BioScience Inc., Ann Arbor, MI, USA) for real-time imaging. […]

Series [4] deals with broad variety of viral infections. In words: Antiviral evaluation, broad variety of viruses. Type of series: cell-based. The following applies: Vero cells; for EC50: reovirus-1, sindbis virus and Punta Toro virus, read-out: EC50 (range over viruses).
In the next series the test system is Vero cell cultures. The settings on record: Vero cells, microscopically detectable alteration of cell morphology; unit not printed in head (EC50 columns µM).
The test system of series [5] is panel of bacteria, Mycobacterium strains and fungi. In words: Antimicrobial screening, panel of bacteria, Mycobacterium strains and fungi. The settings on record: S. aureus, S. pneumoniae, A. baumannii and C. albicans ATCC 90028. The format is cell-based.
[6] abbreviates: MTS, read-out: EC50 Punta Toro Virus, MTS.
The mark [7] stands for this setting: visual CPE score, read-out: EC50 Punta Toro Virus, Visual CPE Score.

Each structure is given as a SMILES string. Read-outs that look alike come from different tables or passages of the source.

In series [1], `COc1cc(NC(C)CCCNC(=O)/C=C/C(=O)Nc2cccc(F)c2)c2ncccc2c1` (stereo not shown) [Compound 4a, (2E)-N-(3-Fluorophenyl)-N′-{4-[(6-methoxyquinolin-8-yl)amino]pentyl}but-2-enediamide] displayed an MBEC of 12.5 µg/mL. In the series with Punta Toro Virus (setting [6]), the concentration for a half-maximal effect (EC50) was over 50 µM. Moreover, the figures for the IC50 (in series [2]; with MM.1S (multiple myeloma); in series [3]) were 22.3 µM, 13 µM and 5.7 to 31.2 µM, respectively.
`COc1cc(NC(C)CCCNC(=O)/C=C/C(=O)Nc2ccc(F)cc2)c2ncccc2c1` (stereo not shown) [Compound 4b, (2E)-N-(4-Fluorophenyl)-N′-{4-[(6-methoxyquinolin-8-yl)amino]pentyl}but-2-enediamide] showed an MBEC in series [1] of 25 µg/mL. Besides, in the series on Punta Toro Virus (setting [6]), the concentration giving a half-maximal response (EC50) was over 50 µM. Further, the concentration for half-maximal inhibition (IC50) (in series [2]; in the series on MM.1S (multiple myeloma)) was over 100 µM in each case.
With `COc1cc(NC(C)CCCNC(=O)/C=C/C(=O)Nc2cccc(Cl)c2)c2ncccc2c1` (stereo not shown) [Compound 4c, (2E)-N-(3-Chlorophenyl)-N′-{4-[(6-methoxyquinolin-8-yl)amino]pentyl}but-2-enediamide], the MBEC in series [1] is 100 µg/mL. In addition, the EC50 with Punta Toro Virus (setting [6]) was 5.5 µM; with Punta Toro Virus (setting [7]), over 50 µM; in series [4], 3.1 to 5.5 µM. Further, the IC50 is 73 µM in series [2] and over 100 µM with MM.1S (multiple myeloma). Further, the “selectivity index (SI), MCC and EC50 ratio” value in series [4] is reported as 1.8–3.7. For the same compound, the “Cytotoxicity MCC (minimum cytotoxic concentration)” value in the series on Vero cell cultures was 10.
In turn, `COc1cc(NC(C)CCCNC(=O)/C=C/C(=O)Nc2ccc(Cl)cc2)c2ncccc2c1` (stereo not shown) [Compound 4d, (2E)-N-(4-Chlorophenyl)-N′-{4-[(6-methoxyquinolin-8-yl)amino]pentyl}but-2-enediamide] came in with an MBEC in series [1] of 50 µg/mL. Besides, in the series with Punta Toro Virus (setting [6]), the EC50 is over 50 µM. Besides, the IC50 (in series [2]; in the series on MM.1S (multiple myeloma)) was over 100 µM in each case. The “MIC values (range over strains)” value in series [5] is 6.1 to 12.5 µg/mL.
`COc1cc(NC(C)CCCNC(=O)/C=C/C(=O)Nc2cccc(C(F)(F)F)c2)c2ncccc2c1` (stereo not shown) [Compound 4e, (2E)-N′-{4-[(6-Methoxyquinolin-8-yl)amino]pentyl}-N-[3-(trifluoromethyl)phenyl]but-2-enediamide] displayed an MBEC in series [1] of 50 µg/mL. Besides, the concentration giving a half-maximal response (EC50) in the series with Punta Toro Virus (setting [6]) was 5.4 µM; in the series on Punta Toro Virus (setting [7]), over 50 µM; in series [4] it was 3.1 to 5.5 µM. Also, the IC50 (in series [2]; with MM.1S (multiple myeloma)) was over 100 µM throughout. In series [4], the “selectivity index (SI), MCC and EC50 ratio” value was 1.8–3.7. For the same compound, in the series with Vero cell cultures, the “Cytotoxicity MCC (minimum cytotoxic concentration)” value was 10.
`COc1cc(NC(C)CCCNC(=O)/C=C/C(=O)Nc2ccc(C(F)(F)F)cc2)c2ncccc2c1` (stereo not shown) [Compound 4f, (2E)-N′-{4-[(6-Methoxyquinolin-8-yl)amino]pentyl}-N-[4-(trifluoromethyl)phenyl]but-2-enediamide] registered an MBEC in series [1] of 50 µg/mL. In addition, in the series with Punta Toro Virus (setting [6]), the EC50 is over 50 µM. For the same compound, the 50% inhibitory concentration (IC50) (in series [2]; with MM.1S (multiple myeloma)) was over 100 µM throughout.
